Laboratory results: ChEMBL document CHEMBL1142844, “A chemical strategy to promote helical peptide-protein interactions involved in apoptosis” (Bioorg Med Chem Lett, 2005)

Molecular target: Apoptosis regulator Bcl-2 (Homo sapiens, UniProt P10415)
Assay: Inhibition of BCL2 by fluorescence polarization based competitive binding assay
Settings: not given; call rule not given here

Apoptosis regulator Bcl-2, sequence (P10415 whole entry): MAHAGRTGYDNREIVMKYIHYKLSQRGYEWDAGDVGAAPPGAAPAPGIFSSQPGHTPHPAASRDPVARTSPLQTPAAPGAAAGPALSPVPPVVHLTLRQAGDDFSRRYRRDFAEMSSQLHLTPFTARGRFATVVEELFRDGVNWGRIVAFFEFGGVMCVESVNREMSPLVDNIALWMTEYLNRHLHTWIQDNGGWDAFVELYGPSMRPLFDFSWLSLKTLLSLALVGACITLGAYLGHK

IC50	Compound
Not Active	H-QRYGRELRRMSDEFEG-OH

Same assay, conditions: read-out: IC50

IC50	Compound
14100 nM	CC[C@H](C)[C@H](NC(=O)[C@H](CC(N)=O)NC(=O)[C@H](CCCN=C(N)N)NC(=O)[C@@H](NC(=O)[C@@H](NC(=O)[C@H](CC(=O)O)NC(=O)[C@H](CCC(=O)O)NC(=O)[C@@H](N)CCC(N)=O)[C@@H](C)CC)[C@@H](C)CC)C(=O)N[C@@H](C)C(=O)N[C@@H](CCCN=C(N)N)C(=O)N[C@@H](Cc1c[nH]cn1)C(=O)N[C@@H](CC(C)C)C(=O)N[C@@H](C)C(=O)N[C@@H](CCC(N)=O)C(=O)N[C@H](C(=O)NCC(=O)N[C@@H](CC(=O)O)C(=O)N[C@@H](CO)C(=O)N[C@@H](CCSC)C(=O)N[C@@H](CC(=O)O)C(=O)N[C@@H](CCCN=C(N)N)C(=O)N[C@@H](CO)C(=O)N[C@H](C(=O)N1CCC[C@H]1C(=O)N1CCC[C@H]1C(=O)NCC(=O)O)[C@@H](C)CC)C(C)C
29100 nM	H-KKLSECLKRIGDELDS-OH
410 nM	H-NLAAAQRYGRELRRMSDEFEGSFKGL-OH
650 nM	H-NLWAAGQVGRQLAIIGDDINRSFKGL-OH
1330 nM	H-NLWAAKKLSECLKRIGDELDSSFKGL-OH
5600 nM	H-NLWAAQRYGRELRRMSDEFEG-OH
800 nM	H-NLWAAQRYGRELRRMSDEFEGAFKGL-OH
1360 nM	H-NLWAAQRYGRELRRMSDEFEGSAKGL-OH
300 nM	H-NLWAAQRYGRELRRMSDEFEGSFKGL-OH
1560 nM	H-NLWAARNIARHLAQVGDSMDRSFKGL-OH
490 nM	H-NRWAAQRYGRELRRMSDEFEGSFKGL-OH
3030 nM	H-PSSTMGQVGRQLAIIGDDINRRYDSE-OH
2880 nM	H-QDASTKKLSECLKRIGDELDSNMELQ-OH
17500 nM	H-QRYGRELRRMSDEFEGSFKGL-OH
22300 nM	H-RNIARHLAQVGDSMDR-OH
